We go through two molecules from patent US10040803B2, “4-((2-acrylamidophenyl)amino)thieno[3,2-D]pyrimidine-7-carboxamide derivatives as protein kinase inhibitors” (KOREA INSTITUTE OF SCIENCE AND TECHNOLOGY, priority 2016, dated 2018).

As a reminder, the GI50 is the concentration at which growth is held to half of that of the control.

In one experiment the test system is Hep3B cells. Description: Inhibition of growth of liver cancer cell line Hep3B (CellTiter-Glo). Type of experiment: cell-based. To be noted: Homo sapiens, CellTiter-Glo luminescence. The protocol: (§1) The inhibition activity for liver cancer cell lines was measured for 4-((2-acrylamido-6-methylphenyl)amino)-N-(3,5-dimethoxyphenyl)thieno[3,2-d]pyrimidine-7-carboxamide (Compound 1) and 4-((2-acrylamido-6-methylphenyl)amino)-N-(2-methyl-5-(3-(trifluoromethyl)benzamido)phenyl)thieno[3,2-d]pyrimidine-7-carboxamide (Compound 2) synthesized in the present invention.
(§2) Hep3B or HUH7 cells were seeded onto a 96-well plate with 5,000 cells per well and then cultured overnight in F-12K Nutrient Mixture (Life Technologies Corporation) containing 10% FBS at 37° C. in the presence of 5% CO2. The test compound dissolved in dimethyl sulfoxide was diluted to a final concentration of 1-50 μM and then added to the 96-well plate. After culturing at 37° C. in the presence of 5% CO2 and adding a cell count reagent (CellTiter-Glo® Luminescent Cell Viability Assay), luminescence intensity was measured using a luminescence measuring apparatus (Envision).

A further experiment relates to HUH7 cells. Description: Inhibition of growth of liver cancer cell line HUH7 (CellTiter-Glo). Type of experiment: cell-based. The note with it: Homo sapiens, Huh-7, CellTiter-Glo luminescence. As for the experimental part: as §1, §2

For the molecule `C=CC(=O)Nc1cccc(C)c1Nc1ncnc2c(C(=O)Nc3cc(OC)cc(OC)c3)csc12` [Compound 1, 4-((2-acrylamido-6-methylphenyl)amino)-N-(3,5-dimethoxyphenyl)thieno[3,2-d]pyrimidine-7-carboxamide], the GI50 in the experiment with Hep3B cells and in the experiment with HUH7 cells was less than 10 µM in each case.

Take `C=CC(=O)Nc1cccc(C)c1Nc1ncnc2c(C(=O)Nc3cc(NC(=O)c4cccc(C(F)(F)F)c4)ccc3C)csc12` [Compound 2, 4-((2-acrylamido-6-methylphenyl)amino)-N-(2-methyl-5-(3-(trifluoromethyl)benzamido)phenyl)thieno[3,2-d]pyrimidine-7-carboxamide]: the 50% growth inhibitory concentration (GI50) in the experiment with Hep3B cells and in the experiment with HUH7 cells was less than 1 µM throughout.
